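Cultured in 96-well plates, cells were exposed to test compound for 48 hours across five concentrations. GI50 marks 50% less growth. Definition used: TGI = concentration required for complete inhibition of growth.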
Legend:
Test in all cases: NCI-60 cell line screen, 48 h
HCC-2998 colon = test system: HCC-2998 colon
UO-31 renal = test system: UO-31 renal
A549 NSCLC = test system: A549 NSCLC
RPMI-8226 leukemia = test system: RPMI-8226 leukemia
KM12 colon = test system: KM12 colon
HOP-62 NSCLC = test system: HOP-62 NSCLC
IGROV1 ovarian = test system: IGROV1 ovarian
BT-549 breast = test system: BT-549 breast
SK-MEL-5 melanoma = test system: SK-MEL-5 melanoma
SNB-75 CNS = test system: SNB-75 CNS
RXF 393 renal = test system: RXF 393 renal
HT29 colon = test system: HT29 colon
MCF7 breast = test system: MCF7 breast
MDA-MB-435 = test system: MDA-MB-435
NCI-H226 lung = test system: NCI-H226 lung
SN12C renal = test system: SN12C renal
UACC-62 melanoma = test system: UACC-62 melanoma
OVCAR-5 ovarian = test system: OVCAR-5 ovarian
NCI-H522 lung = test system: NCI-H522 lung
DU-145 prostate = test system: DU-145 prostate
HCT-116 colon = test system: HCT-116 colon
TK-10 renal = test system: TK-10 renal
LOX IMVI melanoma = test system: LOX IMVI melanoma
SNB-19 CNS = test system: SNB-19 CNS
SF-295 CNS = test system: SF-295 CNS
SF-268 CNS = test system: SF-268 CNS
M14 melanoma = test system: M14 melanoma
NCI-H460 lung = test system: NCI-H460 lung
HOP-92 NSCLC = test system: HOP-92 NSCLC

Cc1cccc2sc(/N=C(\N)C(Br)Br)nc12
GI50 (HCC-2998 colon): 1590 nM
TGI (HCC-2998 colon): 3450 nM
GI50 (UO-31 renal): 1230 nM
TGI (UO-31 renal): 7530 nM
GI50 (A549 NSCLC): 2730 nM
TGI (A549 NSCLC): 10400 nM
GI50 (RPMI-8226 leukemia): 2120 nM
TGI (RPMI-8226 leukemia): 9510 nM
GI50 (KM12 colon): 1990 nM
TGI (KM12 colon): 11800 nM
GI50 (HOP-62 NSCLC): 2700 nM
TGI (HOP-62 NSCLC): 12100 nM
GI50 (IGROV1 ovarian): 1620 nM
TGI (IGROV1 ovarian): 3750 nM
GI50 (BT-549 breast): 1660 nM
TGI (BT-549 breast): 3550 nM
GI50 (SK-MEL-5 melanoma): 3030 nM
TGI (SK-MEL-5 melanoma): 9420 nM
GI50 (SNB-75 CNS): 2010 nM
TGI (SNB-75 CNS): 10600 nM
GI50 (RXF 393 renal): 1320 nM
TGI (RXF 393 renal): 3320 nM
GI50 (HT29 colon): 1180 nM
TGI (HT29 colon): 3530 nM
GI50 (MCF7 breast): 819 nM
TGI (MCF7 breast): 3800 nM
GI50 (MDA-MB-435): 1330 nM
TGI (MDA-MB-435): 2920 nM
GI50 (NCI-H226 lung): 1820 nM
TGI (NCI-H226 lung): 4130 nM
GI50 (SN12C renal): 1680 nM
TGI (SN12C renal): 3920 nM
GI50 (UACC-62 melanoma): 2540 nM
TGI (UACC-62 melanoma): 12000 nM
GI50 (OVCAR-5 ovarian): 2520 nM
TGI (OVCAR-5 ovarian): 7500 nM
GI50 (NCI-H522 lung): 1540 nM
TGI (NCI-H522 lung): 3080 nM
GI50 (DU-145 prostate): 1940 nM
TGI (DU-145 prostate): 11100 nM
GI50 (HCT-116 colon): 520 nM
TGI (HCT-116 colon): 1990 nM
GI50 (TK-10 renal): 4300 nM
TGI (TK-10 renal): 15500 nM
GI50 (LOX IMVI melanoma): 158 nM
TGI (LOX IMVI melanoma): 345 nM
GI50 (SNB-19 CNS): 3230 nM
TGI (SNB-19 CNS): 15100 nM
GI50 (SF-295 CNS): 3650 nM
TGI (SF-295 CNS): 15500 nM
GI50 (SF-268 CNS): 2240 nM
TGI (SF-268 CNS): 13100 nM
GI50 (M14 melanoma): 1390 nM
TGI (M14 melanoma): 3710 nM
GI50 (NCI-H460 lung): 654 nM
TGI (NCI-H460 lung): 2590 nM
GI50 (HOP-92 NSCLC): 1540 nM

Reference: PubChem BioAssay (NCI)
